The text below walks through data of US8354522B2, “Immunostimulatory oligoribonucleotides” (Coley Pharmaceutical GmbH, priority 2005, dated 2013).

For the data set, the system named is Human PBMC. Kind of data set: Cytokine production upon human PBMC stimulation (ORN complexed to DOTAP, 16 h, ELISA). In kind it is cell-based. The note with it: for pEC50 / IFN-alpha max activity / TNF-alpha max activity: ORN complexed to DOTAP, 16 h; for pEC50: full titration 2 μM to 0.9 nM; for IFN-alpha max activity / TNF-alpha max activity: mean max activity at 0.6 μM, 3-6 blood donors; for IFN-alpha / TNF-alpha: human PBMC stimulated for 16 h, supernatant ELISA. Details: key to IFN-alpha / TNF-alpha: +: cytokine production; −: no cytokine production. The method, then: Human peripheral blood mononuclear cells (PBMCs) were isolated from healthy donors, plated, and stimulated in vitro with various test and control immunostimulatory agents for 16 hours. After 16 hours, the supernatants were collected and then analyzed by ELISA assay. N-U-R1-R2,-Containing Oligoribonucleotides were tested complexed to DOTAP and with full titration curves (7 concentrations), starting from 2 μM ORN complexed to 25 μg/ml DOTAP and with 1/3 dilution steps. Also included were certain negative controls, including medium alone and DOTAP (25 μg/ml culture well; “Liposomes”) alone. The control immunostimulatory agents included the imidazoquinoline R-848 (2 μM with 1/3 dilution steps and 7 concentrations) the reported ligand for TLR7, ORN having TLR8 motifs such as AU and AUU sequences (SEQ ID NO:13-SEQ ID NO:15) ORN having TLR7/8 motifs such as CU, GU and GUU sequences (SEQ ID NO:19-SEQ ID NO:23).
Human PBMC were stimulated with ORN complexed to DOTAP. After 16 hours supernatants were harvested and TNF-alpha and IFN-alpha levels were measured. Mean/Max activities at 0.6 μM of 3-6 blood donors and two individual experiments were determined. […] TLR8 and TLR7/8 ORN are divided by a red line.
Human PBMC were stimulated with ORN complexed to DOTAP. After 16 hours supernatants were harvested and IFN-alpha levels were measured. Mean/Max activities at 0.6 μM and EC50 of full titration curves (range: 2 μM to 0.9 nM) of 3-6 blood donors and two individual experiments were determined. […] Low EC50/high Max activity represents TLR7/8 ORN (FIG. 5a) whereas high EC50 and low Max activity represents TLR8 ORN (FIG. 5b).
The ORN sequences listed in Table 1 were tested for IFN-alpha and TNF-alpha production upon human PBMC stimulation. Human PBMC were stimulated for 16 h with the indicated ORN, and supernatants were harvested and cytokine production measured by ELISA. Table 2 summarizes the min/max activity and EC50 of ORN for IFN-alpha and TNF-alpha production.
(ELISA stands for enzyme-linked immunosorbent assay.)

[1] abbreviates: human PBMC, read-out: IFN-alpha EC50.
[2] abbreviates: human PBMC, read-out: TNF-alpha EC50.

pEC50: −log10 of the molar value. Where two headings read alike, the source gives them in different places.

As to “C*C*G*A*G*C*C*G*A*G*C*U*C*A*C*C (CCGAGCCGAGCUCACC; listed as RNA, chemistry not fully specified) [SEQ ID NO: 81]”, under setting [1], the pEC50 was 6.18. The pEC50 under setting [2] is 6.10. Under “human PBMC”, this substance had an IFN-alpha max activity of 842.9 pg/mL and a TNF-alpha max activity of 14519 pg/mL.
For the substance “C*U*A*G*G*C*A*C (CUAGGCAC; phosphorothioate linkages, chemistry not fully specified) [SEQ ID NO: 3]”, the IFN-alpha result is reported as “−” and the TNF-alpha entry was “+”.
Regarding “U*U*A*G*G*C*A*C (UUAGGCAC; phosphorothioate linkages, chemistry not fully specified) [SEQ ID NO: 2]”, the IFN-alpha result is “−” and the TNF-alpha entry is listed as “+”.
On the same counts, the results for “U*U*I*U*U*I*U*U*I*U*U*I*U*U*I*U*U*I*U*U (UUNUUNUUNUUNUUNUUNUU; inosine, phosphorothioate linkages, chemistry not fully specified) [SEQ ID NO: 28]” are “+” and “+”.
In the case of “C*C*G*A*G*C*C*G*A*U*U*G*C*A*C*C (CCGAGCCGAUUGCACC; listed as RNA, chemistry not fully specified) [SEQ ID NO: 74]”, under setting [1], the pEC50 is 6.38. Besides, the pEC50 under setting [2] is 6.48. For the setting “human PBMC”, this substance registered an IFN-alpha max activity of 609.1 pg/mL and a TNF-alpha max activity of 30958 pg/mL.
“U*U*U*U*G*U*U*U*U*G*U*U*U*U*G*U*U*U*U*G (UUUUGUUUUGUUUUGUUUUG; listed as RNA, chemistry not fully specified) [SEQ ID NO: 23]”: the IFN-alpha entry was “+” and the TNF-alpha entry is “+”.
Consider “U*U*U*A*U*U*U*A*U*U*U*A*U*U*U*A*U*U*U*A (UUUAUUUAUUUAUUUAUUUA; chemistry not fully specified) [SEQ ID NO: 14]”, for which the IFN-alpha result is listed as “+” and the TNF-alpha entry was “+”. Also, the “IFN-alpha production upon PBMC stimulation (in words)” value (human PBMC) was “induced IFN-alpha production”.
On to “C*C*G*A*G*C*C*G*A*U*U*U*C*A*C*C (CCGAGCCGAUUUCACC; listed as RNA, chemistry not fully specified) [SEQ ID NO: 71]”, for which the pEC50 under setting [1] was 7.29. For the same substance, under setting [2], the pEC50 was 6.80. For the setting “human PBMC”, this substance had an IFN-alpha max activity of 1626 pg/mL and a TNF-alpha max activity of 45164 pg/mL.
On the same counts, the results for “C*C*G*A*G*C*C*G*A*U*C*U*U*A*C*C (CCGAGCCGAUCUUACC; listed as RNA, chemistry not fully specified) [SEQ ID NO: 64]” are 6.24, 6.54, 1421 pg/mL and 30712 pg/mL.
Consider “C*C*G*A*G*C*C*G*A*U*A*U*U*A*C*C (CCGAGCCGAUAUUACC; listed as RNA, chemistry not fully specified) [SEQ ID NO: 65]”, for which the pEC50 under setting [1] is 5.95. Moreover, the pEC50 under setting [2] is 7.11. For the same substance, under “human PBMC”, the IFN-alpha max activity worked out at 335.2 pg/mL and the TNF-alpha max activity worked out at 39377 pg/mL.
For the substance “C*U*C*U*C*U*C*U*C*U*C*U*C*U*C*U*C*U*C*U (CUCUCUCUCUCUCUCUCUCU; listed as RNA, chemistry not fully specified) [SEQ ID NO: 19]”, the IFN-alpha entry is listed as “+” and the TNF-alpha entry was “+”.
As to “C*C*G*A*G*C*C*G*A*A*G*C*U*C*C*C (CCGAGCCGAAGCUCCC; listed as RNA, chemistry not fully specified) [SEQ ID NO: 84]”, the pEC50 under setting [1] was under 5.70. For the same substance, the pEC50 under setting [2] was 6.42. For the setting “human PBMC”, the IFN-alpha max activity was determined as 67.76 pg/mL and the TNF-alpha max activity came out at 8545 pg/mL.
As to “U*G*U*G*U*G*U (UGUGUGU; phosphorothioate linkages, chemistry not fully specified) [SEQ ID NO: 31]”, the IFN-alpha entry is listed as “+” and the TNF-alpha entry is listed as “+”.
“C*C*G*A*G*C*C*A*U*A*U*A*U*A*U*C (CCGAGCCAUAUAUAUC; listed as RNA, chemistry not fully specified) [SEQ ID NO: 39]”: under setting [1], the pEC50 is at most 5.82. Besides, the pEC50 under setting [2] was 6.49. Under “human PBMC”, this substance returned an IFN-alpha max activity of 356.7 pg/mL and a TNF-alpha max activity of 19253 pg/mL.
Take “C*C*G*A*G*C*C*G*C*A*U*U*C*C*C*C (CCGAGCCGCAUUCCCC; listed as RNA, chemistry not fully specified) [SEQ ID NO: 54]”: the pEC50 under setting [1] is 6.11. For the same substance, the pEC50 under setting [2] is 6.47. Under “human PBMC”, the IFN-alpha max activity was 1233 pg/mL and the TNF-alpha max activity was found to be 12595 pg/mL.
Taken in the same sequence, the figures for “C*C*G*A*G*C*C*G*A*A*G*C*U*A*C*C (CCGAGCCGAAGCUACC; listed as RNA, chemistry not fully specified) [SEQ ID NO: 87]” were under 5.70, 6.46, 100.5 pg/mL and 12979 pg/mL.
With “C*C*G*A*G*C*C*G*A*T*U*U*U*A*C*C (CCGAGCCGANUUUACC; Oligoribonucleotide, chemistry of T and the '*' linkage is not given here, further chemistry not given here) [SEQ ID NO: 59]”, the pEC50 is 7.13 under setting [1] and 6.65 under setting [2]. The substance further displayed an IFN-alpha max activity (human PBMC) of 1714 pg/mL. This substance had a TNF-alpha max activity (human PBMC) of 26762 pg/mL.
Taken in the same sequence, the figures for “C*C*G*A*G*C*C*G*A*T*U*U*C*A*C*C [SEQ ID NO: 68] (CCGAGCCGANUUCACC; Oligoribonucleotide, chemistry of T and the '*' linkage is not given here, further chemistry not given here)” were 7.74, 6.66, 1821 pg/mL and 29647 pg/mL.
On to “G*U*A*G*U*A*G (GUAGUAG; phosphorothioate linkages, chemistry not fully specified) [SEQ ID NO: 34]”, for which the IFN-alpha result is listed as “+” and the TNF-alpha entry was “+”.
For the substance “A*A*U*A*A*U*A*A*U*A*A*U*A*A*U*A*A*U*A*A (AAUAAUAAUAAUAAUAAUAA; listed as RNA, chemistry not fully specified) [SEQ ID NO: 16]”, the IFN-alpha result is listed as “−” and the TNF-alpha result is “+”.
As for “G*C*C*A*C*C*G*A*G*C*C*G*A*A*U*A*U*A*C*C (GCCACCGAGCCGAAUAUACC; listed as RNA, chemistry not fully specified) [SEQ ID NO: 11]”, the IFN-alpha entry was “−” and the TNF-alpha entry is listed as “+”.
As to “C*C*G*A*G*C*C*G*A*A*G*A*U*A*C*C (CCGAGCCGAAGAUACC; listed as RNA, chemistry not fully specified) [SEQ ID NO: 85]”, the pEC50 under setting [1] is under 5.70. Further, the pEC50 under setting [2] was 6.67. Moreover, for the setting “human PBMC”, the IFN-alpha max activity was 193.7 pg/mL and the TNF-alpha max activity turned out to be 17146 pg/mL.
On the same counts, the results for “C*C*G*A*G*C*C*G*A*G*U*U*C*A*C*C [SEQ ID NO: 67] (CCGAGCCGAGUUCACC; listed as RNA, chemistry not fully specified)” are 7.09, 7.10, 2094 pg/mL and 40729 pg/mL.
On to “U*U*G*U*U*G*U (UUGUUGU; phosphorothioate linkages, chemistry not fully specified) [SEQ ID NO: 29]”, for which the IFN-alpha entry is on record as “+” and the TNF-alpha result was “+”.
“U*A*U*A*U*A*U (UAUAUAU; phosphorothioate linkages, chemistry not fully specified) [SEQ ID NO: 33]”: the IFN-alpha result is given as “−” and the TNF-alpha result is on record as “+”.
On to “C*C*G*A*G*C*C*G*A*T*U*U*C*A*C*C [SEQ ID NO: 79] (CCGAGCCGANUUCACC; Oligoribonucleotide, chemistry of T and the '*' linkage is not given here, further chemistry not given here)”, for which the pEC50 under setting [1] is 7.46. Besides, under setting [2], the pEC50 is 6.48. Where the note is “human PBMC”, the IFN-alpha max activity amounted to 1152 pg/mL and the TNF-alpha max activity turned out to be 17728 pg/mL.

A word on the pEC50: it is the EC50 on a negative log10 scale, so that one unit is a factor of ten.
